Earlier results in patent US5104891A, “Cycloheptimidazolone compounds as angiotensin II antagonists for control of hypertension” (G. D. Searle & Co., priority 1989, dated 1992).

Test system: angiotensin II receptors
Conditions: background; cited from earlier work

Compound	residual agonist activity	vasoconstrictor potency
CNCC(=O)N[C@@H](CCCN=C(N)N)C(=O)N[C@H](C(=O)N[C@@H](Cc1ccc(O)cc1)C(=O)N[C@H](C(=O)N[C@@H](Cc1cnc[nH]1)C(=O)N1CCC[C@H]1C(=O)N[C@@H](C)C(=O)O)C(C)C)C(C)C [Saralasin]	significant residual agonist activity	–
angiotensin II: octapeptide, the primary active species of the renin-angiotensin system (DRVYIHPF; Angiotensin-2; UniProt P01019 25-32, looked up)	–	very potent vasoconstrictor agent
angiotensin III: heptapeptide {[des Asp^1 ]angiotensin II}	–	less potent as a vasoconstrictor than angiotensin II
